Results published in PubChem BioAssay AID1996.
Converted amounts (≈) assume the structure as drawn.

Details: buffer; pH 7.4; 200.0 µM

| SMILES | solubility kinetic [mg/mL] |
| --- | --- |
| COc1ccc(N2CCN(C(=O)COC(=O)c3cccc(OC)c3O)CC2)cc1 | 0.0072 (≈ 18 µM) |
| CSc1ncccc1C(=O)OCC(=O)C(C)(C)C | 0.0396 (≈ 148 µM) |
| CCC(=O)NC(c1ccc(C)cc1)c1ccc2cccnc2c1O (stereo unspecified) | 0.0016 (≈ 4.99 µM) |
| NC(=O)CCn1cnc2ccccc21 | 0.0255 (≈ 135 µM) |
| Cc1cccc(C)c1NC(=S)NCCSc1ccc(Cl)cc1 | 0.0033 (≈ 9.4 µM) |
| CC1CCCN(C(=O)CCCC(=O)N2CCCC(C)C2)C1 (stereo unspecified) | > 0.0442 |
| O=C(NCCCCCCNC(=O)c1ccccc1O)c1ccccc1O | 0.0012 (≈ 3.37 µM) |
| COC(=O)C(Cc1c[nH]c2ccccc12)NC(=O)C1CC1 (stereo unspecified) | > 0.0429 |
| CCCC12CN3CC(C)(CN(C1)C3c1cccs1)C2=O (stereo unspecified) | 0.0391 (≈ 135 µM) |
| O=C(Nc1ccc2ccccc2n1)c1ccccc1Cl | 0.0011 (≈ 3.89 µM) |
| COc1ccc(Oc2ncccc2NC(=O)c2cccc(C)c2C)cc1 | 0.0059 (≈ 16.9 µM) |
| CN1C/C(=C/c2cccs2)C(=O)/C(=C\c2cccs2)C1 | 0.0246 (≈ 81.6 µM) |
| Cc1ccc(NC(=O)N2CCc3ccccc3C2)c(C)c1 | 0.0054 (≈ 19.3 µM) |
| O=C(O)c1ccccc1C(=O)NC1=NN(c2ccccc2)CC1 | > 0.0464 |
| CCOC(=O)CCn1c(=S)n(CCC(=O)OCC)c2ccccc21 | 0.0495 (≈ 141 µM) |
| CCOC(=O)c1[nH]cnc1C(=O)Nc1ccccc1 | 0.0114 (≈ 44 µM) |
| COc1ccc(CNC(=O)CCSCc2ccc(C)cc2)cc1 | 0.0165 (≈ 50.1 µM) |
| O=C(O)c1sccc1S(=O)(=O)N1CCOCC1 | > 0.0416 |
| CC(C)CC(=O)N/C(N)=N/c1nc2ccccc2o1 | 0.0013 (≈ 4.99 µM) |
| COC(=O)c1ccc(/C=C/C(=O)OCC(=O)Nc2sccc2C(N)=O)cc1 | 0.0039 (≈ 10 µM) |
| C#CCNC(=O)c1cc2sccc2n1C | 0.0306 (≈ 140 µM) |
| Cc1ccc(C)n1-c1ccccc1N1CCCCC1 | 0.0064 (≈ 25.2 µM) |
| CN1C2CCC1CC(NC(=O)c1cccc(C(F)(F)F)c1)C2 (stereo unspecified) | > 0.0469 |
| O=C(OCC(=O)N1CCc2ccccc2C1)c1ccc(F)cc1Cl | 0.0372 (≈ 107 µM) |
| Cc1ccc(C)c(N2C(=O)CC(Cc3ccc(Cl)cc3)C2=O)c1 (stereo unspecified) | 0.0176 (≈ 53.7 µM) |
| CN(C)C(=O)Oc1ccnc2cc(Cl)ccc12 | > 0.0376 |

| SMILES | solubility kinetic [mg/mL] |
| --- | --- |
| COc1ccccc1C(=O)C1CCCN(Cc2cccc3nccnc23)C1 (stereo unspecified) | 0.0395 (≈ 109 µM) |
| Cc1nc(-c2cccc(Br)c2)ccc1C(=O)O | 0.0432 (≈ 148 µM) |
| Cc1ccc(N2CCN(S(=O)(=O)c3ccc(C)cc3)CC2)cc1 | < 0.0004 |
| Cc1ccc(NC(=O)c2ccccc2NC(=O)c2cccs2)cc1 | < 0.0004 |
| CC(=O)N(C(C)=O)c1c(N2CCCC2)c2ccccc2oc1=O | 0.0461 (≈ 147 µM) |
| O=C1OC(N2C(=O)CC[C@H]2C(=O)Nc2ccc3c(c2)OCO3)c2ccccc21 (stereo partly specified) | > 0.0571 |
| NC(=O)c1ccc(NC(=S)NCc2ccco2)cc1 | > 0.0413 |
| CC(=O)c1ccc(N2CCN(C(=O)c3cccs3)CC2)c(F)c1 | > 0.0499 |
| Cc1ccc(N2C(=O)CN(Cc3cccs3)C2=S)cc1C | < 0.0003 |
| O=C(CN1CCN(Cc2ccccc2Cl)C1=O)NCc1ccccn1 | > 0.0538 |
| O=C1NC(c2ccc(F)cc2)Oc2ccccc21 (stereo unspecified) | 0.0064 (≈ 26.3 µM) |
| O=c1c2c([N+](=O)[O-])cc([N+](=O)[O-])cc2nc2ccccn12 | 0.0032 (≈ 11.2 µM) |
| CCOc1ccccc1NC(=O)COC(=O)C1CC1 | > 0.0395 |
| Cl.N[C@H]1C(O)O[C@H](CO)[C@@H](O)[C@@H]1O (stereo partly specified) | > 0.0323 |
| COc1ccsc1C(=O)NCCN1CCOCC1 | 0.0397 (≈ 147 µM) |
| c1ccc(Cn2c(NCc3ccncc3)nc3ccccc32)cc1 | > 0.0472 |
| O=C(Nc1ccc(F)cc1F)NC1CCCc2ccccc21 (stereo unspecified) | 0.0003 (≈ 0.992 µM) |
| COC(=O)c1sccc1NC(=O)c1ccc(Cl)cc1 | < 0.0006 |
| O=C(NCc1cccnc1)c1ccccc1NS(=O)(=O)c1ccc(Br)cc1 | > 0.0669 |
| Cc1cccc(NC(=O)NNC(=O)c2ccccn2)c1 | > 0.0405 |
| COc1ccc(NC(C)c2ccccc2)cc1 (stereo unspecified) | 0.0169 (≈ 74.3 µM) |
| Cc1cccc2[nH]c(CN(C)Cc3nc(CC4CC4)no3)nc12 | 0.0459 (≈ 147 µM) |
| CC(C)N(CCC#N)C(=O)Nc1ccc2c(c1)CCO2 | > 0.041 |
| COc1ccc(NC(=O)CN2C(=O)NC3(CCCC3)C2=O)cc1 | 0.0401 (≈ 126 µM) |
| CC(C)Oc1ccc(CNC(=O)Oc2ccccc2)cc1 | 0.0255 (≈ 89.4 µM) |
| COc1ccc(NC(=O)CNC(=O)C2CCCCC2)cc1 | 0.0397 (≈ 137 µM) |

| SMILES | solubility kinetic [mg/mL] |
| --- | --- |
| c1coc(CSc2ncnc3c2oc2ccccc23)c1 | 0.0009 (≈ 3.19 µM) |
| COc1ccc(NC(=O)CCC(=O)c2cccs2)cc1Cl | 0.0065 (≈ 20.1 µM) |
| CCNC(=O)CC1SC(=Nc2ccc(C)c([N+](=O)[O-])c2)N(C)C1=O (stereo unspecified) | > 0.0526 |
| COc1ccc(C2=NOC(CNC(=S)N3CCOCC3)C2)cc1 (stereo unspecified) | 0.0128 (≈ 38.2 µM) |
| CC(=O)c1cccc(NC(=S)NCCc2ccc(Cl)cc2)c1 | 0.0041 (≈ 12.3 µM) |
| O=C(Nc1ccc(C(=O)c2ccccc2)cc1)c1ccccc1 | < 0.0006 |
| CC(C1CC1)N(Cc1ccccc1)C(=O)NC(=O)c1ccccc1 (stereo unspecified) | 0.0461 (≈ 143 µM) |
| O=C1Nc2cccnc2N(C(=O)CCl)c2ccccc21 | > 0.0432 |
| O=C(COC(=O)/C=C/c1ccc(Cl)c(Cl)c1)NC1CC1 | 0.0044 (≈ 14 µM) |
| O=C(O)c1ccccc1Nc1ccc([N+](=O)[O-])c2nonc12 | 0.0295 (≈ 98.3 µM) |
| Cc1ccc(N2CCN(S(=O)(=O)N3CCCCC3)CC2)c(C)c1 | 0.0038 (≈ 11.3 µM) |
| C=C(C)Cc1c(C)c(C#N)c2[nH]c3ccccc3n2c1=O | 0.0029 (≈ 10.5 µM) |
| O=C(Cc1ccc(Cl)cc1)NCCCNC(=O)c1cccnc1 | 0.0462 (≈ 139 µM) |
| N#C/C(=C/Nc1ccccc1C(=O)O)C(N)=O | > 0.0347 |
| CN(CC(=O)Nc1cccc(C(F)(F)F)c1)Cc1ccccc1 | 0.0208 (≈ 64.5 µM) |
| CCCCN(C)C(=O)c1ccc2c(c1)S(=O)(=O)c1ccccc1C2=O | > 0.0536 |
| CCOC(=O)CC(=O)COc1nc2cc3c(nc2o1)CCCC3 | > 0.0477 |
| CCCN(CCC)CC(C)(C)NS(=O)(=O)c1ccc(Cl)cc1 | 0.0396 (≈ 114 µM) |
| COC(/C(=N/O)c1ccc(Cl)cc1)c1ccccc1 (stereo unspecified) | 0.0358 (≈ 130 µM) |
| Cn1c(=O)c2c(ncn2CCC(=O)N/N=C/c2ccccc2)n(C)c1=O | > 0.0532 |
| O=C(Nc1ccc2[nH]c(=O)[nH]c2c1)c1ccc(Br)o1 | 0.0083 (≈ 25.8 µM) |
| O=C(NCc1ccccc1)c1csc(-c2cccnc2)n1 | > 0.0443 |
| Cc1ccccc1NC(=S)NCCSc1ccc(Cl)cc1 | 0.0033 (≈ 9.79 µM) |
| COC(=O)Nc1ccc(S(=O)(=O)N2CCCc3cccc(O)c32)cc1 | 0.0021 (≈ 5.79 µM) |
| C=CCN1C(=O)/C(=C/c2ccsc2)SC1=S | < 0.0006 |
| COc1ccc(-c2csc(-c3ccc(O)cc3)n2)cc1 | < 0.0006 |

Other lines, results leading:

| solubility kinetic [mg/mL] | SMILES |
| --- | --- |
| > 0.0415 | CC(=O)c1ccc(NC(=S)N2CCCCCC2)cc1 |
| 0.0041 (≈ 14.4 µM) | Cc1cccc(NC(=S)NCCc2ccccc2)c1C |
| > 0.0534 | COc1ccc(CCNS(=O)(=O)c2ccc(Cl)cc2)cc1OC |
| 0.0381 (≈ 142 µM) | Cc1ccc2[nH]cc(CCNC(=O)c3ccco3)c2c1 |
| > 0.0481 | C[C@H](NC(=O)c1ccccc1Cl)C(=O)Nc1ccccc1F |
| 0.0033 (≈ 10.2 µM) | N#CC1(C#N)C(C(=O)C23CC4CC(CC(C4)C2)C3)C12CCOCC2 (stereo unspecified) |
| > 0.0515 | CN(CC(O)Cn1cnc2c1c(=O)n(C)c(=O)n2C)c1ccccc1 (stereo unspecified) |
| > 0.0782 | COc1ccc(CCN(C)CCCC(C#N)(c2cc(OC)c(OC)c(OC)c2)C(C)C)cc1OC.Cl (stereo unspecified) |
| > 0.0472 | Cc1ccccc1-c1nnc(CS(=O)(=O)c2ccccc2)o1 |
| 0.0356 (≈ 146 µM) | O=C(C1CCC1)N1CCN(c2ccccc2)CC1 |
| > 0.0362 | O=C(NNC(=O)c1ccncc1)c1ccccc1 |
| > 0.049 | Cn1cccc1C1CCCN1CC(=O)Nc1ccc(C(N)=O)cc1 (stereo unspecified) |
| 0.0308 (≈ 107 µM) | Cn1cnc2c1c(=O)n(Cc1cccc(F)c1)c(=O)n2C |
| 0.0324 (≈ 148 µM) | CCCn1c(=O)c(C#N)cn(C2CC2)c1=O |
| 0.0446 (≈ 139 µM) | Cc1cc(C)nc(/N=C(\N)Nc2ccc(S(N)(=O)=O)cc2)n1 |
| 0.0413 (≈ 149 µM) | N#C/C(=C(/O)CCl)c1nc(-c2ccccc2)cs1 |
| 0.0017 (≈ 4.64 µM) | Cc1ccc2nc(SCC(=O)N3CCN(c4ccccc4)CC3)[nH]c2c1 |
| < 0.0007 | CCOc1ccc(C(=O)n2cc(C(=O)OC)c3ccccc32)cc1 |
| > 0.0413 | CCC(=O)Nc1cccc(C(=O)Nc2nccs2)c1 |
| 0.0013 (≈ 4.04 µM) | O=C1/C(=C/c2ccc(O)cc2)SC(=S)N1CC1CCCO1 (stereo unspecified) |
| 0.0367 (≈ 120 µM) | OC(CC#CCN1CCCC1)(c1ccccc1)c1ccccc1 |
| 0.0319 (≈ 100 µM) | CC(C)(C)c1ccc(OCCCCCCN2CCNCC2)cc1 |

| solubility kinetic [mg/mL] | SMILES |
| --- | --- |
| > 0.0476 | CC(OC(=O)c1ccco1)C(=O)NCc1ccc2c(c1)OCO2 (stereo unspecified) |
| > 0.0498 | COc1ccccc1NC(=O)c1cc(OC)c(OC)cc1[N+](=O)[O-] |
| 0.0352 (≈ 138 µM) | c1coc(CN2CNc3nc4ccccc4n3C2)c1 |
| > 0.0562 | CCOc1ccc(S(=O)(=O)N=C(c2ccccc2)N2CCOCC2)cc1 |
| > 0.0481 | COC(=O)c1ccc(C)c(NC(=O)Cn2c(C)csc2=O)c1 |
| 0.0017 (≈ 5.44 µM) | O=C1/C(=C/c2ccncc2)SC(=S)N1Cc1ccccc1 |
| 0.0152 (≈ 44.1 µM) | CCOc1ccc(N2CC(C(=O)NC3CCCCCC3)CC2=O)cc1 (stereo unspecified) |
| > 0.0417 | O=C(O)c1nc(NCCc2ccccc2)ncc1Cl |
| 0.0085 (≈ 29.8 µM) | CCCC(=O)N/C(N)=N/c1nc(C)c2cc(C)ccc2n1 |
| 0.0009 (≈ 2.34 µM) | O=C(Nc1nc2ccccc2n1CCN1CCOCC1)c1ccc(Cl)cc1 |
| 0.0078 (≈ 28.6 µM) | CN(C)c1ccc(C(=O)OCC(=O)c2ccc[nH]2)cc1 |
| > 0.0401 | O=S(=O)(c1cccc2nonc12)N1CCCCC1 |
| 0.0046 (≈ 19.9 µM) | N#CCOC(=O)/C=C/c1ccc2c(c1)OCO2 |
| 0.0005 (≈ 1.49 µM) | Cc1nc(SCC(=O)NC2CCCC2)c2c(C)c(C)sc2n1 |
| 0.0409 (≈ 135 µM) | COC(=O)c1c(C)oc(C)c1S(=O)(=O)N1CCOCC1 |
| 0.0179 (≈ 62.9 µM) | O=C(CCc1c[nH]c2ccccc12)N1CCCCCCC1 |
| > 0.047 | CCC(=NCCc1ccc(OC)c(OC)c1)c1ccccc1O |
| 0.0016 (≈ 4.26 µM) | CC(=O)c1ccc(N2CCN(C(=O)c3ccc4[nH]c(C)c(C)c4c3)CC2)cc1 |
| 0.0014 (≈ 6.03 µM) | Cc1cccc2sc(NC(=O)C3CC3)nc12 |
| > 0.0479 | O=C(CN1CCC(NC(=O)C2CC2)CC1)Nc1cccc(F)c1 |
| 0.0174 (≈ 57.5 µM) | COc1ccc(C(=O)CSc2nc(C)cc(C)n2)cc1C |
